What was measured:
Type in all cases: functional
[1] = species on record: Mus musculus; test: Tested for its ability to eliminate the infective trypomastigote form of Trypanosoma cruzi, Y strain present in blood of infected mice at the dose of 0.22 mM
[2] = species on record: Mus musculus; test: Tested for its ability to eliminate the infective trypomastigote form of Trypanosoma cruzi, Y strain present in blood of infected mice at the dose of 0.21 mM
[3] = species on record: Mus musculus; test: Tested for its ability to eliminate the infective trypomastigote form of Trypanosoma cruzi, Y strain present in blood of infected mice at the dose of 0.29 mM
[4] = species on record: Mus musculus; test: Tested for its ability to eliminate the infective trypomastigote form of Trypanosoma cruzi, Y strain present in blood of infected mice at the dose of 0.24 mM
[5] = species on record: Mus musculus; test: Tested for its ability to eliminate the infective trypomastigote form of Trypanosoma cruzi, Y strain present in blood of infected mice at the dose of 0.18 mM
[6] = species on record: Mus musculus; test: Tested for its ability to eliminate the infective trypomastigote form of Trypanosoma cruzi, Y strain present in blood of infected mice at the dose of 0.12 mM
[7] = species on record: Mus musculus; test: Tested for its ability to eliminate the infective trypomastigote form of Trypanosoma cruzi, Y strain present in blood of infected mice at the dose of 0.25 mM
[8] = species on record: Mus musculus; test: Tested for its ability to eliminate the infective trypomastigote form of Trypanosoma cruzi, Y strain present in blood of infected mice at the dose of 0.20 mM
[9] = species on record: Mus musculus; test: Tested for its ability to eliminate the infective trypomastigote form of Trypanosoma cruzi, Y strain present in blood of infected mice at the dose of 0.50 mM
[10] = species on record: Mus musculus; test: Tested for its ability to eliminate the infective trypomastigote form of Trypanosoma cruzi, Y strain present in blood of infected mice at the dose of 0.19 mM
[11] = species on record: Mus musculus; test: Tested for its ability to eliminate the infective trypomastigote form of Trypanosoma cruzi, Y strain present in blood of infected mice at the dose of 0.23 mM

`COc1cccc2c1C(=O)c1ccoc1C2=O` was tested, and the Lysis [1] was 52%.

For `CC(C)c1cc2c(o1)C(=O)c1ccccc1C2=O`, the Lysis [2] was 88%.

In the case of `CCc1cc2c(o1)-c1ccccc1C(=O)C2=O`, the Lysis [1] was 94%.

With `CC/C=C/C1=C(O)C(=O)c2ccccc2C1=O` the Lysis [1] was 68%.

In the case of `CC(C)=CCC1=C(O)C(=O)c2ccccc2C1=O` [LAPACHOL], the Lysis [2] was 65%.

`O=C1C=C(O)C(=O)c2ccccc21` [LAWSONE] gave a Lysis [3] of 76%.

In the case of `Cc1cc2c(o1)C(=O)c1ccccc1C2=O`, the Lysis [4] was 18%.

For `COc1ccc2c(c1OC)C(=O)c1sccc1C2=O`, the Lysis [5] was 19%.

For `CN(C)c1ccc(C(=C2C=CC(=[N+](C)C)C=C2)c2ccc(N(C)C)cc2)cc1.[Cl-]` [GENTIAN VIOLET], the Lysis [6] was 100%.

`O=C1c2ccccc2C(=O)c2occc21` gave a Lysis [7] of 33%.

Molecule `COc1cccc2c1C(=O)c1ccsc1C2=O` has a Lysis [8] of 0%.

Work on `COc1ccc2c(c1)C(=O)c1ccsc1C2=O` yielded a Lysis [8] of 9%.

`COc1cc(OC)c2c(c1)C(=O)c1sccc1C2=O` showed a Lysis [5] of 19%.

In the case of `COc1cccc2c1C(=O)c1sccc1C2=O`, the Lysis [8] was 26%.

For `O=C1C(=O)c2ccoc2-c2ccccc21`, the Lysis [9] was 100%.

Molecule `CC1(C)CCC2=C(O1)C(=O)c1ccccc1C2=O` [ALPHA-LAPACHONE] has a Lysis [2] of 48%.

For `O=C1c2ccccc2C(=O)c2sc([N+](=O)[O-])cc21`, the Lysis [10] was 54%.

For `O=C1c2ccccc2C(=O)c2sccc21` [THIOPHENONAPHTHOQUINONE], the Lysis [11] was 13%.

`CCc1cc2c(o1)C(=O)c1ccccc1C2=O` gave a Lysis [1] of 24%.

Work on `CC1(C)CCC2=C(O1)c1ccccc1C(=O)C2=O` [LAPACHONE] yielded a Lysis [2] of 76%.

`CC(C)c1cc2c(o1)-c1ccccc1C(=O)C2=O` was tested, and the Lysis [2] was 94%.

For `CC(C)/C=C/C1=C(O)C(=O)c2ccccc2C1=O`, the Lysis [2] was 81%.

Reference: ChEMBL document CHEMBL1130355, “Trypanocidal activity and redox potential of heterocyclic- and 2-hydroxy-naphthoquinones” (1997)
